Experimental data published in US8192719B2, “Methods and kits to diagnose growth hormone deficiency by oral administration of EP 1572 or EP 1573 compounds” (Aeterna Zentaris GmbH, priority 2006, dated 2012).
Like-named read-outs stand apart in the source and are kept apart here.

Test: pharmacokinetic profile of EP 1572 after oral administration in healthy male subjects
Type: in vivo
Settings: human, plasma EP 1572, oral, mean ± SEM; for AUC(0-t): read-out: AUC (0-300) (converted)
Protocol: After a provocative test with EP 1572, the pharmacokinetic profile of EP 1572 and the level of GH released in response to its oral administration were established in 36 healthy male subjects at various doses.
From the subject a blood sample was drawn at 30 and 15 minutes before the administration of EP 1572. A sample of blood was taken from the subject immediately before the aqueous formulation containing 0.5 mg/kg of EP 1572 was orally administered to the subject. Further blood samples were taken from the subject at 15, 30, 60, 90, 120, 150, 180, 210, 240, 270 and 300 minutes from administration and a portion of each sample processed according to the assay protocol outlined below. The level of GH present in each sample was determined by the assay method outlined below and the peak concentration (Cmax) for the subject determined. The remainder of the sample was used to determine the level of EP 1572 present in the systemic circulation (as outlined below).
The organic components in human plasma were extracted using a total of […] of an ethyl acetate/iso-propanol mixture (82.5% and 17.5%, respectively). […] Quantification was performed with EP 1573 as an internal standard (peak area ratio evaluation).
Further dosing studies were carried out wherein the subjects were administered doses of 0.005, 0.05, 0.25 and 0.125 mg/kg each, using the formulations described above.

Cmax (0.05 mg/kg): 0.86 ± 0.24 ng/mL | Tmax (0.05 mg/kg): 75 min | AUC(0-t) (0.05 mg/kg): 1.74 ng·h/mL | Cmax (0.125 mg/kg): 2.33 ± 0.39 ng/mL | Tmax (0.125 mg/kg): 62.5 min | AUC(0-t) (0.125 mg/kg): 5.35 ng·h/mL | Cmax (0.25 mg/kg): 3.92 ± 0.57 ng/mL | Tmax (0.25 mg/kg): 55 min | AUC(0-t) (0.25 mg/kg): 8.67 ng·h/mL | Cmax (0.5 mg/kg): 7.59 ± 0.83 ng/mL | Tmax (0.5 mg/kg): 50 min | AUC(0-t) (0.5 mg/kg): 16.1 ng·h/mL
SMILES: CC(C)(N)C(=O)N[C@H](Cc1c[nH]c2ccccc12)C(=O)N[C@H](Cc1c[nH]c2ccccc12)NC=O [EP 1572, H-Aib-D-Trp-D-gTrp-CHO]
